The target in assay [1] is T1, size exclusion purified monomeric Aβ42 (LMW) (Homo sapiens, UniProt P05067).
T1 construct: size exclusion purified monomeric Aβ42 (LMW)
Nature of the assay: Assay 1: Targeting monomeric Aβ assay, ThT fluorescence. The format is biochemical. The conditions noted are these: for LMW (effects of compounds compared to control without compounds) - signal intensity: 37° C; for Inhibition of Aβ fibrillization: LMW, ratio and time not stated. Here is the method: Assay 1: Targeting Monomeric Aβ Assay (Timeframe 24-48 Hrs) (See FIG. 1):
In this assay, it was started with size exclusion purified monomeric Aβ42 (LMW). This was incubated with a compound of interest (C) at 37° C. The extent of aggregation was then assessed at 24 and 48 hrs by Thioflavin T (ThT) fluorescence. […] However, it is difficult to infer from this assay alone at which point along the amyloid formation pathway the compound acts, i.e., does interfere with monomer to protofibrils transition or block protofibrils to fibril transition.
(§1) Aβ42 LMW and PF were used at a final concentration of […] and incubated alone or with the compounds at a ratio of 1:0.5 or 1:2.

Assay [2] has as its target T2, size exclusion purified protofibrillar mixture of Aβ42 (PF) (Homo sapiens, UniProt P05067).
T2 construct: size exclusion purified protofibrillar mixture of Aβ42 (PF)
The experiment in a line: Assay 2: Targeting protofibrillar Aβ assay, ThT fluorescence. As to conditions: for PF (effects of compounds compared to control without compounds) - signal intensity: 37° C; for Inhibition of Aβ fibrillization: PF, ratio and time not stated. The assay is classed as biochemical. As to the method: Assay 2: Targeting Protofibrillar Aβ Assay (Timeframe 24-48 Hrs) (See FIGS. 1 and 2A-2D):
In this assay it was started with a size exclusion purified protofibrillar mixture of Aβ42 (PF). This was incubated with the compound of interest (C) at 37° C. The extent of aggregation was then assessed at 24 and 48 hrs by Thioflavin T (ThT) fluorescence. […] This could occur via at least two mechanisms; i) blocking protofibrils to fibril transition or ii) inducing the dissociation/disaggregation of protofibrils.
as §1

Setting [3] is: 24 h, ratio Aβ42:compound 1:0.5, Aβ42 10 pM.

T2 sequence (P05067 672-713 limits assumed): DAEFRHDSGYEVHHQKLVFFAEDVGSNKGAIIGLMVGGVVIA
T1 sequence (P05067 672-713 limits assumed): as above

Take `O=C(/C=C/c1ccc(O)c(O)c1)O[C@@H](C(=O)O)[C@@H](O)C(=O)O` [NP7, Caftaric acid]: the “LMW (effects of compounds compared to control without compounds) - signal intensity” value in assay [1] (24 h, ratio 1:2, Aβ42 10 pM) is reported as “Decrease”; in assay [1] (setting [3]), “Decrease”; in assay [1] (48 h, ratio 1:0.5, Aβ42 10 pM), “Decrease”; in assay [1] (48 h, ratio 1:2, Aβ42 10 pM), “Decrease”. Moreover, the “Inhibition of Aβ fibrillization” value is given as 42% in assay [1] and 35% in assay [2]. Further, the “PF (effects of compounds compared to control without compounds) - signal intensity” value in assay [2] (24 h, ratio 1:0.5, Aβ42 10 pM) was “Decrease”; in assay [2] (24 h, ratio 1:2, Aβ42 10 pM) it was “Decrease”; in assay [2] (48 h, ratio 1:0.5, Aβ42 10 pM), “Decrease”; in assay [2] (48 h, ratio 1:2, Aβ42 10 pM), “Decrease”.

Take Chicoric acid [NP5]: the “LMW (effects of compounds compared to control without compounds) - signal intensity” value in assay [1] (24 h, ratio 1:2, Aβ42 10 pM) was “Decrease”; in assay [1] (setting [3]), “Decrease”; in assay [1] (48 h, ratio 1:0.5, Aβ42 10 pM), “Decrease”; in assay [1] (48 h, ratio 1:2, Aβ42 10 pM), “Decrease”. The “Inhibition of Aβ fibrillization” value in assay [1] was 50%; in assay [2], 41%. In addition, the “PF (effects of compounds compared to control without compounds) - signal intensity” value in assay [2] (24 h, ratio 1:0.5, Aβ42 10 pM) is recorded as “Decrease”; in assay [2] (24 h, ratio 1:2, Aβ42 10 pM), “Decrease”; in assay [2] (48 h, ratio 1:0.5, Aβ42 10 pM), “Decrease”; in assay [2] (48 h, ratio 1:2, Aβ42 10 pM), “Decrease”.

The record behind these values is patent publication US10912803B2, “Probiotic and polyphenol against neurodegeneration” (NESTEC S.A., priority 2012, dated 2021).
